Consider 1 compound from patent US6599860B1, “Herbicidal halogenalkyl-substituted 3-(4,5-dihydroisoxazol-3-yl)-benzoyl-cyclohexenones” (BASF Aktiengesellschaft, priority 1999, dated 2003).

Molecules are shown by their SMILES.

For orientation: melting point means the temperature, or range, at which the solid turns liquid. The compound `Cc1c(C(=O)C2C(=O)C3CCC(C3)C2=O)ccc(S(C)(=O)=O)c1C1=NOC(CCl)C1` (stereo not shown) [Compound 2.2, 3-[2-Methyl-3-(5-chloromethyl-4,5-dihydroisoxazol-3-yl)-4-methyl-sulfonylbenzoyl]bicyclo[3.2.1]octane-2,4-dione] came in with a melting point of 98 to 103 °C.
